# Data as given in ChEMBL document CHEMBL1121775, “Synthesis and antimalarial effects of N2-aryl-N4-[(dialkylamino)alkyl]- and N4-aryl-N2-[(dialkylamino)alkyl]-2,4-quinazolinediamines” (J Med Chem, 1981).
# Values joined by “and” are separate entries in the source; they are usually repeats but may differ in a detail not shown here. Equal values may be shown once.
# Legend:
# Assay type in all cases: functional
# Plasmodium berghei [1] = assay: Antimalarial effect against trophozoite-induced Plasmodium berghei in mice (Mus musculus) after 20 mg/kg subcutaneous dose
# Plasmodium berghei [2] = assay: Antimalarial effect against trophozoite-induced Plasmodium berghei in mice (Mus musculus) at 320 mg/kg subcutaneous dose
# Plasmodium berghei [3] = assay: (§1) Antimalarial effect against trophozoite-induced Plasmodium berghei in mice (Mus musculus) at 640 mg/kg subcutaneous dose
# Plasmodium berghei [4] = assay: Antimalarial effect against trophozoite-induced Plasmodium berghei in mice (Mus musculus) at 160 mg/kg subcutaneous dose
# Plasmodium berghei [5] = assay: Antimalarial effect against trophozoite-induced Plasmodium berghei in mice (Mus musculus) at 80 mg/kg subcutaneous dose
# Mus musculus [6] = assay: Number of mice cured at a dose of 640 mg/kg sc; conditions: route subcutaneous
# Plasmodium berghei [7] = assay: Antimalarial effect against trophozoite-induced Plasmodium berghei in mice (Mus musculus) after 40 mg/kg subcutaneous dose
# Plasmodium berghei [8] = assay: as §1; remark: listed apart in the source
# Mus musculus [9] = assay: Number of mice cured at a subcutaneous dose of 320 mg/kg.
# Plasmodium berghei [10] = assay: Antimalarial activity against trophozoite-induced Plasmodium berghei in mice (Mus musculus)
# Plasmodium berghei [11] = assay: Antimalarial activity against trophozoite-induced Plasmodium berghei in mice (Mus musculus) at 160 mg/kg subcutaneous dose
# Mus musculus [12] = assay: Number of mice cured at a subcutaneous dose of 160 mg/kg.
Structure (SMILES),MST (Plasmodium berghei [1]),MST (Plasmodium berghei [2]),MST (Plasmodium berghei [4]; 160 mg/kg),MST (Plasmodium berghei [5]),MST (Plasmodium berghei [7]),MST (Plasmodium berghei [4]),MST (Plasmodium berghei [8]),further results
CCN(CC)CCCNc1nc(Nc2cc(Cl)cc(Cl)c2)c2ccccc2n1,0.2 days,5 days,3 days and 2.7 days,1.4 days,,,,MST (Plasmodium berghei [3]; 640 mg/kg): 14.5 days and 15.7 days; No. of survivals (Mus musculus [6]): 2
CCN(CC)C1CCC(Nc2nc(Nc3ccc(SC)cc3)c3ccccc3n2)CC1 (centres undefined),,11.7 days,,,0.7 days,5.7 days,,MST (Plasmodium berghei [1]; 20 mg/kg): 0.5 days and 0.7 days; MST (Plasmodium berghei [5]; 80 mg/kg): 1.1 days and 1.3 days
CCN(CC)CCCC(C)Nc1nc(Nc2cc(OC)c(OC)c(OC)c2)c2ccccc2n1 (centres undefined),0.3 days,0.5 days,0.3 days and 0.6 days,-0.3 days,,,,MST (Plasmodium berghei [8]; 640 mg/kg): 3.5 days and 5 days
CN(C)C1CCC(Nc2nc(Nc3cccc(Br)c3)c3ccccc3n2)CC1 (centres undefined),,,,,-0.1 days,0.7 days,0.7 days,
CCN(CC)CCCC(C)Nc1nc(Nc2ccc(O)c(CN(CC)CC)c2)c2ccccc2n1 (centres undefined),0 days,7.4 days,3.8 days and 1.6 days,1.4 days,,,5.6 days,MST (Plasmodium berghei [7]; 40 mg/kg): 0.6 days and 0.2 days; MST (Plasmodium berghei [3]): 3.1 days; No. of survivals (Mus musculus [6]): 3
CCN1CCC(CNc2nc(Nc3cc(Cl)cc(Cl)c3)c3ccccc3n2)CC1,,,5.7 days and 5.9 days,,0.5 days,,,MST (Plasmodium berghei [1]; 20 mg/kg): 0.5 days and 0.3 days; MST (Plasmodium berghei [5]; 80 mg/kg): 2.5 days and 2.7 days; No. of survivals (Mus musculus [6]; 640 mg/kg): 3 and 2; No. of survivals (Mus musculus [9]; 320 mg/kg): 3 and 2
CCN(CC)CCNc1nc(Nc2cc(Cl)c(Cl)cc2Cl)nc2ccccc12,,,,,0.4 days,0.4 days,1.2 days,
CCN1CCCC(Nc2nc(Nc3ccc(C(F)(F)F)cc3)c3ccccc3n2)C1 (centres undefined),,0.9 days,0.2 days and 0.3 days,-0.1 days,,,,MST (Plasmodium berghei [8]; 640 mg/kg): 3.4 days and 3.1 days
CCN(CC)CCCC(C)Nc1nc(Nc2ccc(Cl)c(Cl)c2)c2ccccc2n1 (centres undefined),0.1 days,1.3 days,,0.3 days,,,,MST (Plasmodium berghei [7]; 40 mg/kg): 0.3 days and 0.4 days; MST (Plasmodium berghei [8]; 640 mg/kg): 4.7 days and 5.8 days
CCN(CC)CCCC(C)Nc1nc(Nc2cc(Cl)cc(Cl)c2)c2ccccc2n1 (centres undefined),0.1 days,3.1 days,1.1 days and 1.2 days,-0.1 days,,,,MST (Plasmodium berghei [8]; 640 mg/kg): 4.9 days and 4.4 days
Clc1cc(Cl)cc(Nc2nc(NCCCN3CCCCC3)nc3ccccc23)c1,,,,,0.2 days,0.2 days,1.6 days,
CCN(CC)CCCNc1nc(Nc2ccc(Cl)c(Cl)c2)c2ccccc2n1,0 days,8.4 days,4.6 days and 5.2 days,2.8 days,,,,MST (Plasmodium berghei [3]; 640 mg/kg): 9.8 days and 10.5 days; No. of survivals (Mus musculus [6]): 1
CCN1CCCC(Nc2nc(Nc3ccc(Cl)c(Cl)c3)nc3ccc([N+](=O)[O-])cc23)C1 (centres undefined),,,,,,,,SD90 (Plasmodium berghei [10]): 34 mg/kg/day
CCN(CC)C1CCC(Nc2nc(Nc3cccc(Br)c3)c3ccccc3n2)CC1 (centres undefined),,,10.3 days and 10.1 days,,,,,MST (Plasmodium berghei [1]; 20 mg/kg): 0.3 days and 0.5 days; MST (Plasmodium berghei [2]; 320 mg/kg): 12.9 days and 12.7 days; MST (Plasmodium berghei [7]; 40 mg/kg): 0.3 days and 0.5 days; MST (Plasmodium berghei [5]; 80 mg/kg): 2.5 days and 2.7 days; No. of survivals (Mus musculus [6]; 640 mg/kg): 3 and 2
CCN(CC)CCNc1nc(Nc2ccc(C(F)(F)F)cc2)c2ccccc2n1,0.2 days,2.8 days,,-0.2 days,,,,MST (Plasmodium berghei [8]; 640 mg/kg): 5.3 days and 5.5 days
CCN1CCCC(Nc2nc(Nc3cc(Cl)cc(Cl)c3)c3ccccc3n2)C1 (centres undefined),0.4 days,2.4 days,0.4 days and 0.3 days,0.2 days,,,,MST (Plasmodium berghei [7]; 40 mg/kg): 0.2 days and 0.1 days; MST (Plasmodium berghei [8]; 640 mg/kg): 4.4 days and 6.3 days

Structure (SMILES),MST (Plasmodium berghei [1]),MST (Plasmodium berghei [2]),MST (Plasmodium berghei [4]; 160 mg/kg),MST (Plasmodium berghei [5]),MST (Plasmodium berghei [7]),MST (Plasmodium berghei [4]),MST (Plasmodium berghei [8]),further results
OC1CCCN(CCCNc2nc(Nc3cccc4nsnc34)nc3ccccc23)C1 (centres undefined),,,,,0 days,0 days,0 days,
Clc1cc(Cl)cc(Nc2nc(NCCCN3CCCC3)nc3ccccc23)c1,,,,,0.4 days,0.8 days,1.2 days,
CCN1CCCC(Nc2nc(Nc3ccc(Cl)c(Cl)c3)nc3c(Cl)cc(Cl)cc23)C1 (centres undefined),0.3 days,,,,0.3 days,0.5 days,,
CCN1CCC(CNc2nc(Nc3ccc(Cl)c(Cl)c3)c3ccccc3n2)CC1,,,,,2.1 days,,,MST (Plasmodium berghei [1]; 20 mg/kg): 0.5 days and 0.7 days; MST (Plasmodium berghei [11]): 6.94 days; MST (Plasmodium berghei [5]; 80 mg/kg): 6.7 days and 6.9 days; No. of survivals (Mus musculus [12]): 1; No. of survivals (Mus musculus [6]): 5; No. of survivals (Mus musculus [9]): 5
CN(C)C1CCC(Nc2nc(Nc3cc(Cl)cc(Cl)c3)c3ccccc3n2)CC1 (centres undefined),-0.2 days,,,1.2 days,0 days,2.6 days,,No. of survivals (Mus musculus [6]): 5
FC(F)(F)c1ccc(Nc2nc(NCCCN3CCCCC3)nc3ccccc23)cc1,,,,,-0.2 days,-0.2 days,2.4 days,
CCN(CC)CCCC(C)Nc1nc(Nc2ccc(C(F)(F)F)cc2)c2ccccc2n1 (centres undefined),,,,,-0.6 days,0 days,1.6 days,
CN(C)c1ccc(Nc2nc(NC3CCC(N(C)C)CC3)nc3ccccc23)cc1 (centres undefined),,,,,-0.2 days,0.6 days,1.1 days,
CCN(CC)C1CCC(Nc2nc(Nc3ccc(Cl)c(Cl)c3)c3ccccc3n2)CC1 (centres undefined),0.3 days,,,,0.5 days,,,MST (Plasmodium berghei [2]; 320 mg/kg): 14.4 days and 14.9 days; MST (Plasmodium berghei [11]; 160 mg/kg): 17.2 days and 15.6 days; MST (Plasmodium berghei [5]; 80 mg/kg): 2.9 days and 3.1 days; No. of survivals (Mus musculus [12]; 160 mg/kg): 1 and 2; No. of survivals (Mus musculus [6]): 5; No. of survivals (Mus musculus [9]): 3
Clc1ccc(Nc2nc(NCCCN3CCCCC3)nc3ccccc23)cc1Cl,-0.2 days,1.6 days,,-0.4 days,,,,MST (Plasmodium berghei [8]; 640 mg/kg): 3 days and 4.1 days
CCN1CCCC(Nc2nc(Nc3ccc(Cl)c(Cl)c3)c3ccccc3n2)C1 (centres undefined),0.9 days,2.9 days,0.9 days and 2.2 days,0.9 days,,,,MST (Plasmodium berghei [8]; 640 mg/kg): 9.5 days and 10.6 days
CN(C)C1CCC(Nc2nc(Nc3ccc(C(F)(F)F)cc3)c3ccccc3n2)CC1 (centres undefined),,,,,1.1 days,0.7 days,0.7 days,
CCN(CC)CCCNc1nc(Nc2ccc(C(F)(F)F)cc2)c2ccccc2n1,0 days,9.2 days,0.6 days and 0.3 days,0.8 days,,,,MST (Plasmodium berghei [8]; 640 mg/kg): 10.1 days and 7.5 days
CCN(CC)C1CCC(Nc2nc(Nc3ccc(C(F)(F)F)cc3)c3ccccc3n2)CC1 (centres undefined),,,9.7 days and 9.5 days,,0.5 days,,,MST (Plasmodium berghei [1]; 20 mg/kg): 0.5 days and 0.3 days; MST (Plasmodium berghei [5]; 80 mg/kg): 0.7 days and 0.5 days; No. of survivals (Mus musculus [6]; 640 mg/kg): 3 and 2; No. of survivals (Mus musculus [9]): 5
CCN(CC)C1CCC(Nc2nc(Nc3cc(Cl)cc(Cl)c3)c3ccccc3n2)CC1 (centres undefined),0.3 days,,0.7 days and 0.5 days,0.5 days,,,,MST (Plasmodium berghei [2]; 320 mg/kg): 7.9 day and 8.1 MST; MST (Plasmodium berghei [7]; 40 mg/kg): 0.5 days and 0.3 days; No. of survivals (Mus musculus [6]): 5
CN1CCCC1CCNc1nc(Nc2ccc(C(F)(F)F)cc2)c2ccccc2n1 (centres undefined),0.3 days,,1.5 days and 1.7 days,0.5 days,0.3 days,,7.7 days,MST (Plasmodium berghei [2]; 320 mg/kg): 4.1 days and 4.3 days
